Experimental data: US8916131B2, “Radiopharmaceutical composition” (GE Healthcare Limited, priority 2007, dated 2014)

Key:
[1] = Compound 1 adsorption (loss) to various silicone tubings with polysorbate 80; type: physicochemical
Description: Solutions were prepared containing 7% v/v ethanol in 10 mM sodium phosphate buffer at pH 7.4, 75 μg of Compound 1 and selected v/v % amounts of polysorbate 80. Various silicone tubing types were tested as follows: [table] The percentage loss of Compound 1 onto the tubing was calculated in each experiment. Fluorine was assayed before and after the passage through tubing, and the results were as follows: […]

[2] = Loss of Compound 1 to dispensing kit components (syringe, silicone tube, hard tube, filter), evaluated by HPLC; type: physicochemical; settings: 7% v/v ethanol
Description: Solutions were prepared containing 7% v/v ethanol in 0.01 M sodium phosphate buffer at pH 7.4, 75 μg of Compound 1 and either (i) 12% v/v propylene glycol (PG) or (ii) 10% v/v polyethylene glycol 400 (PEG 400). Percentage loss of Compound 1 to various components of a dispensing kit was evaluated by High Performance Liquid Chromatography (HPLC) in the following experiments: […]

% Loss Compound 1 ([1]; Experiment 1: 0.8 × 4.0 Pt-cured silicone tubing, polysorbate 80 0 v/v %, 2 min 0 sec, 350 μl): 63%
% Loss Compound 1 ([1]; Experiment 2: 1.6 × 4.8 Pt-cured silicone tubing, polysorbate 80 0 v/v %, 2 min 7 sec, 1400 μl): 41%
% Loss Compound 1 ([1]; Experiment 3: 1.6 × 4.8 Perox-cured silicone tubing, polysorbate 80 0 v/v %, 2 min 6 sec, 1400 μl): 45%
% Loss Compound 1 ([1]; Experiment 4: 0.8 × 4.0 Pt-cured silicone tubing, polysorbate 80 1 v/v %, 2 min 3 sec, 350 μl): 0%
% Loss Compound 1 ([1]; Experiment 5: 1.6 × 4.8 Pt-cured silicone tubing, polysorbate 80 1 v/v %, 2 min 10 sec, 1400 μl): 1%
% Loss Compound 1 ([1]; Experiment 6: 1.6 × 4.8 Perox-cured silicone tubing, polysorbate 80 1 v/v %, 2 min 4 sec, 1400 μl): 0%
% Loss Compound 1 ([1]; Experiment 7: 0.8 × 4.0 Pt-cured silicone tubing, polysorbate 80 5 v/v %, 2 min 2 sec, 350 μl): 0%
% Loss Compound 1 ([1]; Experiment 8: 1.6 × 4.8 Pt-cured silicone tubing, polysorbate 80 5 v/v %, 2 min 4 sec, 1400 μl): 1%
% Loss Compound 1 ([1]; Experiment 9: 1.6 × 4.8 Perox-cured silicone tubing, polysorbate 80 5 v/v %, 2 min 1 sec, 1400 μl): 1%
% loss ([2]; 10% v/v PEG 400, filter, 11 sec, 9.5 ml, 0.01 M phosphate pH 7.4): 51%
% loss ([2]; 10% v/v PEG 400, hard tube, 5 min 4 sec, ~2-2.5 ml, 0.01 M phosphate pH 7.4): 4%
% loss ([2]; 10% v/v PEG 400, silicone tube, 2 min 2 sec, ~1-1.5 ml, 0.01 M phosphate pH 7.4): 8%
% loss ([2]; 10% v/v PEG 400, syringe, 1 min 1 sec, 9.5 ml, 0.01 M phosphate pH 7.4): 1%
% loss ([2]; 12% v/v PG, filter, 10 sec, 9.5 ml, 0.01 M phosphate pH 7.4): 87%
% loss ([2]; 12% v/v PG, hard tube, 5 min 2 sec, ~2-2.5 ml, 0.01 M phosphate pH 7.4): 3%
% loss ([2]; 12% v/v PG, silicone tube, 2 min 23 sec, ~1-1.5 ml, 0.01 M phosphate pH 7.4): 30%
% loss ([2]; 12% v/v PG, syringe, 1 min 4 sec, 9.5 ml, 0.01 M phosphate pH 7.4, 75 μg Compound 1): 0%
Structure (SMILES): CNc1ccc(-c2nc3ccc(O)cc3s2)cc1[18F] [Compound 1, 2-[3-[^18F]fluoro-4-(methylamino)phenyl]-6-hydroxy-benzothiazole]
